These molecules were tested against T1, P2X7 receptor (Homo sapiens, UniProt Q99572) (assay: IL-1β release assay in differentiated THP-1 cells stimulated with BzATP (Example 9)). Details: 0.1 μM compound (symbols *); differentiated THP-1 cells, BzATP 250 uM; read-out: IL-1β % Inhib. @ 0.3 or 0.1 uM.
T1 construct: host or cells: THP-1 cells differentiated with LPS and IFN-γ
T1 sequence (Q99572 1-595): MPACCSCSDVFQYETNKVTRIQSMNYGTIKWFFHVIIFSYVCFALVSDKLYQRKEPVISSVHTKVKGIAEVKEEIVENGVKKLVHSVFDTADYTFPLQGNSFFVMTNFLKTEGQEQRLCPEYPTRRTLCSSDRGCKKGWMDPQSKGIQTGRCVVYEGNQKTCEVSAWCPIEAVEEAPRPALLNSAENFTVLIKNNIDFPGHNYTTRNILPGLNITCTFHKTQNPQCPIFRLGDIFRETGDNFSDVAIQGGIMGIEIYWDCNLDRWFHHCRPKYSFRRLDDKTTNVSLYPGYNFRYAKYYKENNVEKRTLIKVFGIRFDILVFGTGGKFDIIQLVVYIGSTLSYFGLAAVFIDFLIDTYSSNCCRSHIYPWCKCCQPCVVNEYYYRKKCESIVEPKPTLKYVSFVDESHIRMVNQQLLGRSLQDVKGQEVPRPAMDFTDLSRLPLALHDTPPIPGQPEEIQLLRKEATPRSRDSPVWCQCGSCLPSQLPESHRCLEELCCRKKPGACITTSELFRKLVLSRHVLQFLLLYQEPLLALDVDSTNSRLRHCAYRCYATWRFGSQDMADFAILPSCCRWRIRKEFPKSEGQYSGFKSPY
Format: cell-based
Description: THP-1 cells (ATCC Cat #285-IF-100) are plated in 96 well plates at a concentration of 200,000 cells per well and allowed to differentiate in RPMI-1640 media (ATCC Cat #30-2001) containing 10% FBS, 100 IU/mL penicillin, 100 ug/mL streptomycin, 100 ng/mL LPS and 100 ng/mL IFN-γ for 16 hours. Following differentiation, the cells are treated for an additional 2 hours in RPMI-1640 media containing 100 IU/mL penicillin, 100 ug/mL streptomycin and fresh LPS at 100 ng/mL. The cells are then pretreated for 30 minutes with the compound of interest at the appropriate concentration in RPMI media containing 100 IU/mL penicillin, 100 ug/mL streptomycin. Following the pretreatment 2′,3′-O-(4-benzoylbenzoyl)-adenosine 5′-triphosphate (Sigma Aldrich Cat #B6396) is added to a final concentration of 250 uM and the cells are incubated for an additional 45 minutes. 30 uL of cell supernatant is then collected and IL-1β levels determined via ELISA (R&D systems Cat. #HSLB50) according to manufacturer's recommendations using the Tecan Safire plate reader. Background adjusted IL-1β levels of drug treated and non-treated cells are used to calculate the percent inhibition.
The compounds set forth in Table 1 were tested for activity in a cellular model as described herein. Specifically, cells were pretreated with differing amounts of the compound under test and released IL-1β determined as in Example 9, above. Measurements were made and IC50 values, presented in Table 2, below, were determined by fitting the data to a four parameter logistic equation using GraphPad Prism software (GraphPad Software, Inc). The equation may be expressed by the following formula:
Y=Bottom+(Top−Bottom)/(1+10̂((Log EC50−X)*HillSlope))
Where X is the logarithm of concentration, Y is the response and Y starts at Bottom and goes to Top with a sigmoid shape.

inhibition at 0.1 µM	SMILES
0 to 25%	COc1ccc(C(=O)Nc2cccc3c(=O)n(CC4(O)CCCCC4)ccc23)c(C)c1 [Compound 83]
0 to 25%	Cc1ccccc1CCC(=O)Nc1cccc2c(=O)n(CC3(O)CCCCC3)ccc12 [Compound 84]
0 to 25%	Cc1cccc(C(=O)Nc2cccc3c(=O)n(CC4(O)CCCCC4)ccc23)c1C [Compound 85]
0 to 25%	Cc1ccc(C(=O)Nc2cccc3c(=O)n(CC4(O)CCCCC4)ccc23)c(C)c1 [Compound 86]
0 to 25%	COc1ccccc1CCC(=O)Nc1cccc2c(=O)n(CC3(O)CCCCC3)ccc12 [Compound 87]
0 to 25%	O=C(Cc1ccccc1Cl)Nc1cccc2c(=O)n(CC3(O)CCCCC3)ccc12 [Compound 88]
0 to 25%	Cc1ccccc1CC(=O)Nc1cccc2c(=O)n(CC3(O)CCCCC3)ccc12 [Compound 89]
26 to 50%	Cc1ccccc1CCC(=O)Nc1cccc2c(=O)n(C(C)CO)ccc12 (centres unmarked) [Compound 90]
0 to 25%	COc1cccc(CCC(=O)Nc2cccc3c(=O)n(C(C)CO)ccc23)c1 (centres unmarked) [Compound 91]
0 to 25%	COc1ccc(C(=O)Nc2cccc3c(=O)n(C(C)CO)ccc23)cc1Cl (centres unmarked) [Compound 92]
0 to 25%	CCOc1cccc(C(=O)Nc2cccc3c(=O)n(C(C)CO)ccc23)c1 (centres unmarked) [Compound 93]
0 to 25%	CC(CO)n1ccc2c(NC(=O)CCc3ccc4c(c3)OCO4)cccc2c1=O (centres unmarked) [Compound 94]
0 to 25%	CC(CO)n1ccc2c(NC(=O)c3ccccc3Cl)cccc2c1=O (centres unmarked) [Compound 95]
0 to 25%	CC(CO)n1ccc2c(NC(=O)c3ccc(Cl)cc3Cl)cccc2c1=O (centres unmarked) [Compound 96]
0 to 25%	CC(CO)n1ccc2c(NC(=O)c3cc(Cl)ccc3Cl)cccc2c1=O (centres unmarked) [Compound 97]
0 to 25%	Cc1cccc(C(=O)Nc2cccc3c(=O)n(C(C)CO)ccc23)c1C (centres unmarked) [Compound 98]
0 to 25%	Cc1ccc(C(=O)Nc2cccc3c(=O)n(C(C)CO)ccc23)c(C)c1 (centres unmarked) [Compound 99]
0 to 25%	Cc1ccc(C)c(C(=O)Nc2cccc3c(=O)n(C(C)CO)ccc23)c1 (centres unmarked) [Compound 100]
0 to 25%	CCOc1ccc(C(=O)Nc2cccc3c(=O)n(C(C)CO)ccc23)cc1 (centres unmarked) [Compound 101]
0 to 25%	CC(CO)n1ccc2c(NC(=O)c3ccc(-c4ccccc4)cc3)cccc2c1=O (centres unmarked) [Compound 102]
0 to 25%	CC(C(=O)Nc1cccc2c(=O)n(C(C)CO)ccc12)c1ccccc1 (centres unmarked) [Compound 103]
0 to 25%	COc1ccccc1CCC(=O)Nc1cccc2c(=O)n(C(C)CO)ccc12 (centres unmarked) [Compound 104]

inhibition at 0.1 µM	SMILES
0 to 25%	COc1ccc(CCC(=O)Nc2cccc3c(=O)n(C(C)CO)ccc23)cc1 (centres unmarked) [Compound 105]
0 to 25%	CC(CO)n1ccc2c(NC(=O)c3cccc4ccccc34)cccc2c1=O (centres unmarked) [Compound 106]
0 to 25%	COc1ccccc1CC(=O)Nc1cccc2c(=O)n(C(C)CO)ccc12 (centres unmarked) [Compound 107]
0 to 25%	COc1ccc(OC)c(CC(=O)Nc2cccc3c(=O)n(C(C)CO)ccc23)c1 (centres unmarked) [Compound 108]
0 to 25%	COc1ccc(CC(=O)Nc2cccc3c(=O)n(C(C)CO)ccc23)cc1OC (centres unmarked) [Compound 109]
0 to 25%	COc1ccc(CC(=O)Nc2cccc3c(=O)n(C(C)CO)ccc23)cc1 (centres unmarked) [Compound 110]
0 to 25%	CC(CO)n1ccc2c(NC(=O)CCCc3ccccc3)cccc2c1=O (centres unmarked) [Compound 111]
0 to 25%	CC(CO)n1ccc2c(NC(=O)c3cc4ccccc4o3)cccc2c1=O (centres unmarked) [Compound 112]
0 to 25%	CC(CO)n1ccc2c(NC(=O)Cc3ccc4c(c3)OCO4)cccc2c1=O (centres unmarked) [Compound 113]
0 to 25%	COc1cc(CC(=O)Nc2cccc3c(=O)n(C(C)CO)ccc23)cc(OC)c1 (centres unmarked) [Compound 114]
0 to 25%	Cc1ccc(C(=O)Nc2cccc3c(=O)n(C(C)CO)ccc23)cc1Cl (centres unmarked) [Compound 115]
0 to 25%	CC(CO)n1ccc2c(NC(=O)c3cccc4c3OCCO4)cccc2c1=O (centres unmarked) [Compound 116]
0 to 25%	CC(CO)n1ccc2c(NC(=O)c3ccc4c(c3)OCCCO4)cccc2c1=O (centres unmarked) [Compound 117]
26 to 50%	Cc1c(Cl)cccc1C(=O)Nc1cccc2c(=O)n(C(C)CO)ccc12 (centres unmarked) [Compound 118]
0 to 25%	Cc1cc(C)cc(CC(=O)Nc2cccc3c(=O)n(C(C)CO)ccc23)c1 (centres unmarked) [Compound 119]
0 to 25%	COc1ccc(CC(=O)Nc2cccc3c(=O)n(C(C)CO)ccc23)c(OC)c1 (centres unmarked) [Compound 120]
0 to 25%	Cc1ccc(Cl)c(C(=O)Nc2cccc3c(=O)n(C(C)CO)ccc23)c1 (centres unmarked) [Compound 121]
0 to 25%	Cc1ccc(Cl)cc1C(=O)Nc1cccc2c(=O)n(C(C)CO)ccc12 (centres unmarked) [Compound 122]
0 to 25%	COc1ccc(C(=O)Nc2cccc3c(=O)n(C(C)CO)ccc23)cc1C (centres unmarked) [Compound 123]
0 to 25%	CCOc1ccc(C(=O)Nc2cccc3c(=O)n(CC(C)O)ccc23)c(O)c1 (centres unmarked) [Compound 124]
0 to 25%	COc1ccc(C(=O)Nc2cccc3c(=O)n(CC(C)O)ccc23)c(C)c1 (centres unmarked) [Compound 125]
26 to 50%	Cc1ccccc1CCC(=O)Nc1cccc2c(=O)n(CC(C)O)ccc12 (centres unmarked) [Compound 126]

inhibition at 0.1 µM	SMILES
0 to 25%	CC(O)Cn1ccc2c(NC(=O)c3ccc(-c4ccccc4)o3)cccc2c1=O (centres unmarked) [Compound 127]
0 to 25%	COc1cccc(CCC(=O)Nc2cccc3c(=O)n(CC(C)O)ccc23)c1 (centres unmarked) [Compound 128]
0 to 25%	Cc1cc(C)c(CC(=O)Nc2cccc3c(=O)n(CC(C)O)ccc23)c(C)c1 (centres unmarked) [Compound 129]
26 to 50%	Cc1ccc(C)c(CC(=O)Nc2cccc3c(=O)n(CC(C)O)ccc23)c1 (centres unmarked) [Compound 130]
0 to 25%	COc1ccc(C(=O)Nc2cccc3c(=O)n(CC(C)O)ccc23)cc1Cl (centres unmarked) [Compound 131]
0 to 25%	CCOc1cccc(C(=O)Nc2cccc3c(=O)n(CC(C)O)ccc23)c1 (centres unmarked) [Compound 132]
26 to 50%	CC(O)Cn1ccc2c(NC(=O)CCc3ccccc3Cl)cccc2c1=O (centres unmarked) [Compound 133]
0 to 25%	CC(O)Cn1ccc2c(NC(=O)CCc3ccc4c(c3)OCO4)cccc2c1=O (centres unmarked) [Compound 134]
0 to 25%	Cc1cc(C(=O)Nc2cccc3c(=O)n(CC(C)O)ccc23)ccc1Cl (centres unmarked) [Compound 135]
0 to 25%	CC(O)Cn1ccc2c(NC(=O)c3ccccc3Cl)cccc2c1=O (centres unmarked) [Compound 136]
0 to 25%	CC(O)Cn1ccc2c(NC(=O)c3ccc(Cl)cc3Cl)cccc2c1=O (centres unmarked) [Compound 137]
0 to 25%	CC(O)Cn1ccc2c(NC(=O)c3cc(Cl)ccc3Cl)cccc2c1=O (centres unmarked) [Compound 138]
26 to 50%	Cc1ccccc1C(=O)Nc1cccc2c(=O)n(CC(C)O)ccc12 (centres unmarked) [Compound 139]
0 to 25%	Cc1cccc(C(=O)Nc2cccc3c(=O)n(CC(C)O)ccc23)c1C (centres unmarked) [Compound 140]
0 to 25%	Cc1ccc(C(=O)Nc2cccc3c(=O)n(CC(C)O)ccc23)c(C)c1 (centres unmarked) [Compound 141]
0 to 25%	Cc1ccc(C)c(C(=O)Nc2cccc3c(=O)n(CC(C)O)ccc23)c1 (centres unmarked) [Compound 142]
0 to 25%	COc1cc(OC)cc(C(=O)Nc2cccc3c(=O)n(CC(C)O)ccc23)c1 (centres unmarked) [Compound 143]
0 to 25%	Cc1cccc(C(=O)Nc2cccc3c(=O)n(CC(C)O)ccc23)c1 (centres unmarked) [Compound 144]
0 to 25%	CCOc1ccc(C(=O)Nc2cccc3c(=O)n(CC(C)O)ccc23)cc1 (centres unmarked) [Compound 145]
0 to 25%	CC(O)Cn1ccc2c(NC(=O)c3ccc(-c4ccccc4)cc3)cccc2c1=O (centres unmarked) [Compound 146]
0 to 25%	CC(O)Cn1ccc2c(NC(=O)c3ccc(C(C)(C)C)cc3)cccc2c1=O (centres unmarked) [Compound 147]

— patent US20110092476A1, “Bicycloheteroaryl compounds as P2X7 modulators and uses thereof” (Renovis, Inc., priority 2006, published 2011)
